Experimental data from patent publication US8143244B2, “Cyclopropyl fused indolobenzazepine HCV NS5B inhibitors” (Bristol-Myers Squibb Company, priority 2009, dated 2012).
Like-named read-outs stand apart in the source and are kept apart here.

Assays:
HCV replicon genotype 1a = assay: HCV Replicon Luciferase Reporter Assay (LE Assay), genotype 1a replicon; type: cell-based, HCV genotype 1a; details: Hepatitis C virus, read-out: LE NeoLuc EC50
Method: (§1) The HCV replicon luciferase assay was developed to monitor the inhibitory effects of compounds described in the disclosure on HCV viral replication. Utilization of a replicon luciferase reporter assay was first described by Krieger et al (Krieger N, Lohmann V, and Bartenschlager R, J. Virol. 75(10):4614-4624 (2001)). HUH-7 cells, constitutively expressing the HCV replicon, were grown in Dulbeccors Modified Eagle Media (DMEM) (Gibco-BRL) containing 10% Fetal calf serum (FCS) (Sigma) and 1 mg/ml G418 (Gibco-BRL). Compounds were serially diluted 3 folds in DMSO for a twenty-point titration and subsequently transferred to sterile 384-well tissue-culture treated plates (Coming cat #3571). The plates were then seeded with 50 μl of cells at a density of 3.0×10^3 cells/well in DMEM containing 4% FCS (final DMSO concentration at 0.5%). After 3 days incubation at 37° C., cells were analyzed for Renilla Luciferase activity using the EnduRen as substrate (Promega cat #E6485). The EnduRen substrate was diluted in DMEM and then added to the plates to a final concentration of 7.5 μM. The plates were incubated for 2 hrs at 37° C. and then read immediately for 30 seconds with Viewlux Imager (PerkinElmer) using a luminescence program. To assess cytotoxicity of compounds, CC50 values were generated by multiplexing the EnduRen-containing plates with Cell Titer-Blue (Promega, cat #G8082). 3 μl of Cell-Titer Blue was added to each well and incubated for 8 hrs at 37° C. The fluorescence signal from each well was read, with an excitation wavelength at 525/10 nm and an emission wavelength of 598/10 nm, using the Viewlux Imager.

HCV NS5B = biological target: T1, HCV NS5B (Hepatitis C virus genotype 1b, UniProt Q9WMX2); assay: HCV NS5B RdRp enzyme assay; type: biochemical; details: HCV NS5B RdRp genotype 1b
T1 construct: The protein was expressed with an 18 amino acid C-terminal truncation to enhance the solubility; made in house; host or cells: E. coli BL21(DE3)
Method: HCV NS5B RdRp cloning, expression, and purification. The cDNA encoding the NS5B protein of HCV, genotype 1b, was cloned into the pET21a expression vector. The protein was expressed with an 18 amino acid C-terminal truncation to enhance the solubility. The E. coli competent cell line BL21(DE3) was used for expression of the protein. Cultures were grown at 37° C. for ˜4 hours until the cultures reached an optical density of 2.0 at 600 nm. The cultures were cooled to 20° C. and induced with 1 mM IPTG. Fresh ampicillin was added to a final concentration of 50 μg/ml and the cells were grown overnight at 20° C.
Cell pellets (3L) were lysed for purification to yield 15-24 mgs of purified NS5B. The lysis buffer consisted of 20 mM Tris-HCl, pH 7.4, 500 mM NaCl, 0.5% triton X-100, 1 mM DTT, 1 mM EDTA, 20% glycerol, 0.5 mg/ml lysozyme, 10 mM MgCl2, 15 ug/ml deoxyribonuclease I, and Complete TM protease inhibitor tablets (Roche). After addition of the lysis buffer, frozen cell pellets were resuspended using a tissue homogenizer. To reduce the viscosity of the sample, aliquots of the lysate were sonicated on ice using a microtip attached to a Branson sonicator. The sonicated lysate was centrifuged at 100,000×g for 1 hr at 4° C. and filtered through a 0.2 μm filter unit (Corning).
The protein was purified using three sequential chromatography steps: Heparin sepharose CL-6B, polyU sepharose 4B, and Hitrap SP sepharose (Pharmacia). The chromatography buffers were identical to the lysis buffer but contained no lysozyme, deoxyribonuclease I, MgCl2 or protease inhibitor and the NaCl concentration of the buffer was adjusted according to the requirements for charging the protein onto the column. Each column was eluted with a NaCl gradient which varied in length from 5-50 column volumes depending on the column type. After the final chromatography step, the resulting purity of the enzyme is >90% based on SDS-PAGE analysis. The enzyme was aliquoted and stored at −80° C.
Standard HCV NS5B RdRp enzyme assay. HCV RdRp genotype 1b assays were run in a final volume of 60 μl in 96 well plates (Costar 3912). The assay buffer is composed of 20 mM Hepes, pH 7.5, 2.5 mM KCl, 2.5 mM MgCl2, 1 mM DTT, 1.6 U RNAse inhibitor (Promega N2515), 0.1 mg/ml BSA (Promega R3961), and 2% glycerol. All compounds were serially diluted (3-fold) in DMSO and diluted further in water such that the final concentration of DMSO in the assay was 2%. HCV RdRp genotype 1b enzyme was used at a final concentration of 28 nM. A polyA template was used at 6 nM, and a biotinylated oligo-dT12 primer was used at 180 nM final concentration. Template was obtained commercially (Amersham 27-4110). Biotinylated primer was prepared by Sigma Genosys. 3H-UTP was used at 0.6 μCi (0.29 μM total UTP). Reactions were initiated by the addition of enzyme, incubated at 30° C. for 60 min, and stopped by adding 25 μl of 50 mM EDTA containing SPA beads (4 μg/μl, Amersham RPNQ 0007). Plates were read on a Packard Top Count NXT after >1 hr incubation at room temperature.
Modified HCV NS5B RdRp enzyme assay. A modified enzyme assay was performed essentially as described for the standard enzyme assay except for the following: The biotinylated oligo dT12 primer was precaptured on streptavidin-coated SPA beads by mixing primer and beads in assay buffer and incubating at room temperature for one hour. Unbound primer was removed after centrifugation. The primer-bound beads were resuspended in 20 mM Hepes buffer, pH 7.5 and used in the assay at final concentrations of 20 nM primer and 0.67 μg/μl beads. Order of addition in the assay: enzyme (14 nM) was added to diluted compound followed by the addition of a mixture of template (0.2 nM), 3H-UTP (0.6 μCi, 0.29 μM), and primer-bound beads, to initiate the reaction; concentrations given are final. Reactions were allowed to proceed for 4 hours at 30° C.
IC50 values for compounds were determined using seven different [I]. […]

HCV replicon = assay: HCV Replicon Luciferase Reporter Assay (LE Assay); type: cell-based, HCV genotype 1b; details: Hepatitis C virus
Method: as §1

[1] = genotype 1b, Huh-7, read-out: LE NeoLuc EC50, Table 1, HUH-7 cells, genotype 1b replicon
[2] = Huh-7, Table 2, HUH-7 cells, read-out: LE NeoLuc EC50

T1 sequence (Q9WMX2 2420-2992): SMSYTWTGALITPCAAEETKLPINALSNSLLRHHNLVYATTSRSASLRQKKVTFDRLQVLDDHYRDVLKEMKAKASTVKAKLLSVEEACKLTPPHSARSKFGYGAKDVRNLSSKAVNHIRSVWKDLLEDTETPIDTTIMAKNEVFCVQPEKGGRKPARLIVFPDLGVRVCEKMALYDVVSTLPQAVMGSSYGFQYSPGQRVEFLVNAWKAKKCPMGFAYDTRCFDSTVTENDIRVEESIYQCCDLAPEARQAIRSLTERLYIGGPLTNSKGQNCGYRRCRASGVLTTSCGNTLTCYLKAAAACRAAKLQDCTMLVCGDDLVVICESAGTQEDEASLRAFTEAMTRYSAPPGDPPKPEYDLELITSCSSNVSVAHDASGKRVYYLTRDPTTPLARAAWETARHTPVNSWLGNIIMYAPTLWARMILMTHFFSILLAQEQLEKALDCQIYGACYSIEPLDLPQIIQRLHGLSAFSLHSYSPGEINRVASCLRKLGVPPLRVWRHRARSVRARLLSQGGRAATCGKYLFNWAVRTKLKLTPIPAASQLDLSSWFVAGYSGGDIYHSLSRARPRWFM

Row | Structure (SMILES) | EC50 (HCV replicon genotype 1a) [nM] | IC50 (HCV NS5B; Table 1) [nM] | EC50 (HCV replicon; [1]) [nM] | EC50 (HCV replicon; [2]) [nM] | IC50 (HCV NS5B; Table 2) [nM]
1 | COc1ccc2c(c1)[C@@H]1C[C@]1(C(=O)N1CC34CCC3(CN(C(=O)N(C(C)C)C(C)C)C4)C1)Cn1c-2c(C2CCCCC2)c2ccc(C(=O)NS(=O)(=O)C(C)C)cc21 (some centres unmarked) | 1.9 to 500 | 1.9 to 500 | – | – | –
2 | COc1ccc2c(c1)[C@@H]1C[C@]1(C(=O)N1CC34CCC3(C1)C[N+]([O-])(CC(F)(F)F)C4)Cn1c-2c(C2CCCCC2)c2ccc(C(=O)NS(=O)(=O)N(C)C)cc21 (some centres unmarked) | 1.9 to 500 | < 1.7 | – | – | –
3 | CCOCCN1CC23CCC2(C1)CN(C(=O)[C@]12C[C@H]1c1cc(OC)ccc1-c1c(C4CCCCC4)c4ccc(C(=O)NS(=O)(=O)C(C)C)cc4n1C2)C3 (some centres unmarked) | 1.9 to 500 | – | – | – | –
4 | COc1ccc2c(c1)[C@@H]1C[C@]1(C(=O)N1CC34CCC3(CN(CC(F)(F)F)C4)C1)Cn1c-2c(C2CCCCC2)c2ccc(C(=O)NS(=O)(=O)N(C)C)cc21 (some centres unmarked) | – | 1.9 to 500 | 1.9 to 500 | – | –
5 | COc1ccc2c(c1)[C@@H]1C[C@]1(C(=O)N1CC34CCC3(CN(C(=O)N3CCCC3)C4)C1)Cn1c-2c(C2CCCCC2)c2ccc(C(=O)NS(=O)(=O)C(C)C)cc21 (some centres unmarked) | 1.9 to 500 | 1.9 to 500 | – | – | –
6 | COc1ccc2c(c1)[C@@H]1C[C@]1(C(=O)N1CC34CCC3(CN(C)C4)C1)Cn1c-2c(C2CCCCC2)c2ccc(C(=O)NS(=O)(=O)C(C)C)cc21 (some centres unmarked) [drawing 71] | – | 1.9 to 500 | 1.9 to 500 | – | –
7 | COc1ccc2c(c1)[C@@H]1C[C@]1(C(=O)N1CC34COCC3(C1)CN(S(=O)(=O)C(C)C)C4)Cn1c-2c(C2CCCCC2)c2ccc(C(=O)NS(=O)(=O)C(C)C)cc21 (some centres unmarked) | 1.9 to 500 | 1.9 to 500 | – | – | –
8 | COc1ccc2c(c1)[C@@H]1C[C@]1(C(=O)N1CC34COCC3(C1)CN(S(=O)(=O)C(C)C)C4)Cn1c-2c(C2CCCCC2)c2ccc(C(=O)NS(=O)(=O)N(C)C)cc21 (some centres unmarked) | 1.9 to 500 | < 1.7 | – | – | –
9 | COc1ccc2c(c1)[C@@H]1C[C@]1(C(=O)N1CC34CCC3(C1)CN(S(=O)(=O)C(C)C)C4)Cn1c-2c(C2CCCCC2)c2ccc(C(=O)NS(=O)(=O)N(C)C)cc21 (some centres unmarked) | – | 1.9 to 500 | 1.9 to 500 | – | –
10 | COC(=O)N1CC23CCC2(C1)CN(C(=O)[C@]12C[C@H]1c1cc(OC)ccc1-c1c(C4CCCCC4)c4ccc(C(=O)NS(=O)(=O)C(C)C)cc4n1C2)C3 (some centres unmarked) | – | 1.9 to 500 | 1.9 to 500 | – | –
11 | COc1ccc2c(c1)[C@@H]1C[C@]1(C(=O)N1CC34CCC3(C1)CN(S(=O)(=O)C(C)C)C4)Cn1c-2c(C2CCCCC2)c2ccc(C(=O)NS(=O)(=O)C(C)C)cc21 (some centres unmarked) | – | 1.9 to 500 | 1.9 to 500 | – | –
12 | COc1ccc2c(c1)C=C(C(=O)N1CC34COCC3(C1)N(C(C)=O)C4)Cn1c-2c(C2CCCCC2)c2ccc(C(=O)NS(=O)(=O)C(C)C)cc21 (centres unmarked) | – | 1.9 to 500 | 1.9 to 500 | – | –
13 | COc1ccc2c(c1)[C@@H]1C[C@]1(C(=O)N1CC34COCC3(CN(CC(F)(F)F)C4)C1)Cn1c-2c(C2CCCCC2)c2ccc(C(=O)NS(=O)(=O)N(C)C)cc21 (some centres unmarked) | 1.9 to 500 | 1.9 to 500 | – | – | –
14 | COc1ccc2c(c1)[C@@H]1C[C@]1(C(=O)N1CC34CCC3(CN(C(=O)N3CCOCC3)C4)C1)Cn1c-2c(C2CCCCC2)c2ccc(C(=O)NS(=O)(=O)C(C)C)cc21 (some centres unmarked) | 1.9 to 500 | 1.9 to 500 | – | – | –
15 | CNC(=O)N1CC23CCC2(C1)CN(C(=O)[C@]12C[C@H]1c1cc(OC)ccc1-c1c(C4CCCCC4)c4ccc(C(=O)NS(=O)(=O)C(C)C)cc4n1C2)C3 (some centres unmarked) [drawing 99] | – | < 1.7 | 1.9 to 500 | – | –
16 | COc1ccc2c(c1)[C@@H]1C[C@]1(C(=O)N1CC34CCC3(CN(C)C4)C1)Cn1c-2c(C2CCCCC2)c2ccc(C(=O)NS(=O)(=O)C(C)C)cc21 (some centres unmarked) [drawing 108] | – | – | – | 6.96 | 3.5
17 | COc1ccc2c(c1)[C@@H]1C[C@]1(C(=O)N1CC34CCC3(CN(C(=O)N(C)C)C4)C1)Cn1c-2c(C2CCCCC2)c2ccc(C(=O)NS(=O)(=O)C(C)C)cc21 (some centres unmarked) | 1.9 to 500 | 1.9 to 500 | – | – | –
18 | COc1ccc2c(c1)[C@@H]1C[C@]1(C(=O)N1CC34CCC3(C1)CN(C1CC1)C4)Cn1c-2c(C2CCCCC2)c2ccc(C(=O)NS(=O)(=O)N(C)C)cc21 (some centres unmarked) | 1.9 to 500 | – | – | – | –
19 | COc1ccc2c(c1)[C@@H]1C[C@]1(C(=O)N1CC34CCCC3(CN(C)C4)C1)Cn1c-2c(C2CCCCC2)c2ccc(C(=O)NS(=O)(=O)C(C)C)cc21 (some centres unmarked) | – | 1.9 to 500 | 1.9 to 500 | – | –
20 | COc1ccc2c(c1)[C@@H]1C[C@]1(C(=O)N1CC34CCC3(CN(C(=O)N3CCCC3)C4)C1)Cn1c-2c(C2CCCCC2)c2ccc(C(=O)NS(=O)(=O)N(C)C)cc21 (some centres unmarked) | 1.9 to 500 | 1.9 to 500 | – | – | –
21 | COc1ccc2c(c1)[C@@H]1C[C@]1(C(=O)N1CC34CCC3(CN(C(=O)N(C(C)C)C(C)C)C4)C1)Cn1c-2c(C2CCCCC2)c2ccc(C(=O)NS(=O)(=O)N(C)C)cc21 (some centres unmarked) | 1.9 to 500 | 1.9 to 500 | – | – | –
22 | CNC(=O)N1CC23CCC2(C1)CN(C(=O)[C@]12C[C@H]1c1cc(OC)ccc1-c1c(C4CCCCC4)c4ccc(C(=O)NS(=O)(=O)C(C)C)cc4n1C2)C3 (some centres unmarked) [drawing 111] | – | – | – | 60 | < 1.7
23 | COc1ccc2c(c1)[C@@H]1C[C@]1(C(=O)N1CC34CCC3(C1)N(C(C)=O)C4)Cn1c-2c(C2CCCCC2)c2ccc(C(=O)NS(=O)(=O)C(C)C)cc21 (some centres unmarked) | – | 1.9 to 500 | 1.9 to 500 | – | –
